Reference: US10112933B2, “Methods and compositions for treatment of fibrosis” (Baylor College of Medicine, priority 2013, dated 2018)

Key:
MEF/GFP-Stat3α cells = test: HTFM cytoplasmic-to-nuclear translocation of GFP-Stat3α; format: cell-based, murine; conditions: for IC50: Mus musculus, 0.5 h, MEF/GFP-Stat3α, IL-6 200 ng/ml and IL-6sR 250 ng/ml 30 min, read-out: HTM IC50 (ligand-mediated nuclear translocation of GFP-Stat3α)
Method: Coverslips were examined by confocal fluorescent microscopy using filters to detect GFP (column one), DAPI (column two) or both (merge; column three). In panel B, MEF-GFP-Stat3 cells were grown in 96-well plates with optical glass bottoms and pretreated with the indicated compound at the indicated concentrations in quadruplicate for 1 hour then stimulated with IL-6 (200 ng/ml) and IL-6sR (250 ng/ml) for 30 minutes. Cells were fixed and the plates were examined by high-throughput microscopy to determine the fluorescence intensity in the nucleus (FLIN) and the % ΔFLINMax was calculated as described in Example 1. Data shown are mean±SD and are representative of 2 or more studies. Best-fit curves were generated based on 4 Parameter Logistic Model/Dose Response One Site/XLfit 4.2, IDBS and were used to calculate IC50 (Table 1).
Confocal and high-throughput fluorescence microscopy. Confocal and highthroughput fluorescence microscopy (HTFM) of MEF/GFP-Stat3α cells were performed as described (Huang et al., 2007). Briefly, for confocal fluorescence microscopy, cells were grown in 6-well plates containing a cover slip. For HTFM, cells were seeded into 96-well CC3 plates at a density of 5,000 cells/well using an automated plating system. Cells were cultured under standard conditions until 85-90% confluent. Cells were pretreated with compound for 1 hour at 37° C. then stimulated with IL-6 (200 ng/ml) and IL-6sR (250 ng/ml) for 30 minutes. Cells were fixed with 4% formaldehyde in PEM Buffer (80 mM Potassium PIPES, pH 6.8, 5 mM EGTA pH 7.0, 2 mM MgCl2) for 30 minutes at 4° C., quenched in 1 mg/ml of NaBH4 (Sigma) in PEM buffer and counterstained for 1 min in 4,6-diamidino-2-phenylindole (DAPI; Sigma; 1 mg/ml) in PEM buffer. Cover slips were examined by confocal fluorescent microscopy. Plates were analyzed by automated HTFM using the Cell Lab IC Image Cytometer (IC100) platform and CytoshopVersion 2.1 analysis software (Beckman Coulter). Nuclear translocation is quantified by using the fraction localized in the nucleus (FLIN) measurement (Sharp et al., 2006).
Following its phosphorylation on Y705, Stat3 undergoes a change in conformation from head-to-head dimerization mediated through its N-terminal oligomerization domain to tail-to-tail dimerization mediated by reciprocal SH2/pY705-peptide ligand interactions. This conformational change is followed by nuclear accumulation. Compounds that targeted SH2/pY-peptide ligand interactions of Stat3 would be expected to inhibit nuclear accumulation of Stat3. […]
EXP IIB. High throughput fluorescence microscopy (HTFM), cytoplasm-to-nucleus translocation inhibition assays. […] Plates are analyzed by automated HTFM using the Cell Lab IC Image Cytometer (IC100) platform and CytoshopVersion 2.1 analysis software (Beckman Coulter). […]

Stat3:hSIE complex = molecular target: T1, Stat3:hSIE complex (Homo sapiens, UniProt P40763); test: Electrophoretic mobility shift assay (Stat3 DNA binding, hSIE probe); format: biochemical; conditions: extracts of IL-6-stimulated HepG2 cells, compound 300 μM
T1 construct: endogenous in cells; host or cells: HepG2
Method: Electrophoretic mobility shift assays were performed using whole-cell extracts prepared from HepG2 cells without and with stimulation with IL-6 (30 ng/ml) for 30 min. Protein (20 μg) was incubated with radiolabeled duplex oligonucleotide (hSIE) and DMSO without or with the indicated compounds (300 uM) for 60 minutes at 37° C. then separated by PAGE. The gel was dried and autoradiographed; the portion of the gel corresponding to the Stat3-bound hSIE band is shown. Data shown are representative of 2 studies.
Electrophoretic Mobility Shift Assay (EMSA): EMSA was performed using the hSIE radiolabeled duplex oligonucleotide as a probe as described (Tweardy et al., 1995). Briefly, high salt extracts were prepared from HepG2 cells incubated without or with IL-6 (30 ng/ml) for 30 minutes. Protein concentration was determined by Bradford Assay and 20 ug of extract was incubated with compound (300 uM) for 60 minutes at 37° C. […] Gels were dried and autoradiographed.
Once in the nucleus, Stat3 dimers bind to specific DNA elements to activate and, in some instances, repress gene transcription. […] Compounds that bind to the phosphopeptide-binding site of Stat3 might be expected to do the same. […]

T1 sequence (P40763 2-770 limits assumed, one chain of several): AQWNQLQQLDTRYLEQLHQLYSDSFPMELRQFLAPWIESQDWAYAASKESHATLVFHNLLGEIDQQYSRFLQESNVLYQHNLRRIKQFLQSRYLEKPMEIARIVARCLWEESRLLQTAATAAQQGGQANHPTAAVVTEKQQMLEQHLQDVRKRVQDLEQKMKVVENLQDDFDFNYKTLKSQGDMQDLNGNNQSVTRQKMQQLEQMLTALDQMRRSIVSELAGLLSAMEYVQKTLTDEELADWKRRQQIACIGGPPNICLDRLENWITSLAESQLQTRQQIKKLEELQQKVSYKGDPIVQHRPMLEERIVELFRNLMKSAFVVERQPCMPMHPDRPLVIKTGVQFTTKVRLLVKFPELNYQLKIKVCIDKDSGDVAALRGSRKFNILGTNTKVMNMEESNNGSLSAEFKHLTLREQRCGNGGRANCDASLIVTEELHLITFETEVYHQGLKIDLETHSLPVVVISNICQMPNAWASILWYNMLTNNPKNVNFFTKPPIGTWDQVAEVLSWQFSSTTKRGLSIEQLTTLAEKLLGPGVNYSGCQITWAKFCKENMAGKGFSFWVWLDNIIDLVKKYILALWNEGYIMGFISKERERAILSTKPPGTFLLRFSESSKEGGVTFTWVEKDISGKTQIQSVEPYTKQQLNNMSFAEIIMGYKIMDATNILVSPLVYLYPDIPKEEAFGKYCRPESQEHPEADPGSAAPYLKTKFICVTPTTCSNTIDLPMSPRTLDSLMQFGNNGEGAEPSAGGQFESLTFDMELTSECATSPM

Row | SMILES | IC50 (MEF/GFP-Stat3α cells) [µM] | amount of hSIE shifted (Stat3:hSIE band intensity) (Stat3:hSIE complex) | blocked ligand-mediated nuclear translocation of GFP-Stat3 (MEF/GFP-Stat3α cells; MEF/GFP-Stat3α cells)
1 | O=C(O)c1ccc(C=CC(=O)c2ccc3c(c2)OCCO3)cc1 [Cpd3, 4-[3-(2,3-dihydro-1,4-benzodioxin-6-yl)-3-oxo-1-propen-1-yl]benzoic acid] | 131 | reduced the amount of hSIE shifted by half or greater | 
2 | CCOc1cc(C=C2C(=O)c3ccccc3C2=O)cc(Cl)c1OCc1cccc(C(=O)O)c1 [Cpd3-2, 3-({2-chloro-4-[(1,3-dioxo-1,3-dihydro-2H-inden-2-ylidene)methyl]-6-ethoxyphenoxy}methyl)benzoic acid] | 150 |  | 
3 | CCN1C(=O)C(=Cc2ccc(-c3cc(C(=O)O)ccc3Cl)o2)C(=O)N(CC)C1=S [Cpd30-12, 4-chloro-3-{5-[(1,3-diethyl-4,6-dioxo-2-thioxotetrahydro-5(2H)-pyrimidinylidene)methyl]-2-furyl}benzoic acid] | > 300 |  | not
